Experimental data taken from the supplement of paper PMC11208160.

Experiment: recombinant UMI read abundance after kanamycin selection (control-corrected) (log10(CPM+1)); higher = more efficient recombination; extreme values may be limits of the assay; sequences stand for … in AGTGCAGAGAAAATCGGCCAGTTTTCTCTGCCTGCAGTCCGCATGCCGTGGGACCCCTTGGGTTCTAACCTGTTGCCTAGATTTATGCAGCGGACTGCCTTTCTCCCAAAGTGATAAACCGG…AGGTTGGTTTCACT; site = the 11-nt donor
Method in brief: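 Each donor and donor-binding-loop pair was tracked by a 12-nt UMI on a plasmid carrying a promoterless kanamycin gene. With a second plasmid supplying a fixed target and T7-inducible IS621 bridge recombinase, the pool was plated in Escherichia coli on IPTG (0.07 mM) plus kanamycin or unselected. Sequencing of recombinant UMIs across the donor–target junction gave counts expressed as log10(CPM+1) after replicate averaging and control-derived scaling.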

Row | Sequence | recombinant UMI read abundance (log10)
1 | GCTAATGCATGGACCGGTTTTCCCGGTAATCCGTATTTGCC (site GCTACTGCTGG) | 0
2 | GCTAATGCATGGACCGGTTTTCCCGGTAATCCGTATTTGCC (site GCTAGTGCTGG) | 0
3 | GCTAATGCATGGACCGGTTTTCCCGGTAATCCGTATTTGCC (site GCTATTGCTGG) | 0
4 | GCTACCCCATGGACCGGTTTTCCCGGTAATCCGTATTTGTG (site GCTACCCCTCA) | 0.013
5 | GCTACCGCATGGACCGGTTTTCCCGGTAATCCGTATTTGCA (site GCTACCGCTTG) | 2.13
6 | GCTACCTCATGGACCGGTTTTCCCGGTAATCCGTATTTGCG (site GCTACCTCTCG) | 1.22
7 | GCTACGGCATGGACCGGTTTTCCCGGTAATCCGTATTTGCC (site GCTACAGCTGG) | 0
8 | GCTACGGCATGGACCGGTTTTCCCGGTAATCCGTATTTGCC (site GCTACCGCTGG) | 0
9 | GCTACGGCATGGACCGGTTTTCCCGGTAATCCGTATTTGCC (site GCTACGGCTGG) | 0.761
10 | GCTACGGCATGGACCGGTTTTCCCGGTAATCCGTATTTGCC (site GCTACTGCTGG) | 0
11 | GCTACTACATGGACCGGTTTTCCCGGTAATCCGTATTTGCC (site GCTACTACTGG) | 0
12 | GCTACTACATGGACCGGTTTTCCCGGTAATCCGTATTTGCC (site GCTACTCCTGG) | 0
13 | GCTACTACATGGACCGGTTTTCCCGGTAATCCGTATTTGCC (site GCTACTGCTGG) | 0
14 | GCTACTACATGGACCGGTTTTCCCGGTAATCCGTATTTGCC (site GCTACTTCTGG) | 0
15 | GCTACTGCATGGACCGGTTTTCCCGGTAATCCGTATTTGAC (site GCTACTGCTGA) | 0
16 | GCTACTGCATGGACCGGTTTTCCCGGTAATCCGTATTTGAC (site GCTACTGCTGC) | 0
17 | GCTACTGCATGGACCGGTTTTCCCGGTAATCCGTATTTGAC (site GCTACTGCTGG) | 0
18 | GCTACTGCATGGACCGGTTTTCCCGGTAATCCGTATTTGAC (site GCTACTGCTGT) | 2.07
19 | GCTACTTCATGGACCGGTTTTCCCGGTAATCCGTATTTGCC (site GCTACTACTGG) | 0
20 | GCTACTTCATGGACCGGTTTTCCCGGTAATCCGTATTTGCC (site GCTACTCCTGG) | 0
21 | GCTACTTCATGGACCGGTTTTCCCGGTAATCCGTATTTGCC (site GCTACTGCTGG) | 0
22 | GCTACTTCATGGACCGGTTTTCCCGGTAATCCGTATTTGCC (site GCTACTTCTGG) | 1.34
23 | GCTAGAGCATGGACCGGTTTTCCCGGTAATCCGTATTTGTA (site GCTAGAGCTTA) | 2.58
24 | GCTAGGGCATGGACCGGTTTTCCCGGTAATCCGTATTTGTT (site GCTAGGGCTAA) | 1.53
25 | GCTCGCCCATGGACCGGTTTTCCCGGTAATCCGTATTTGAT (site GCTAGCCCTAT) | 0.0115

Row | Sequence | recombinant UMI read abundance (log10)
26 | GCTCGCCCATGGACCGGTTTTCCCGGTAATCCGTATTTGAT (site GCTCGCCCTAT) | 0.567
27 | GCTCGCCCATGGACCGGTTTTCCCGGTAATCCGTATTTGAT (site GCTGGCCCTAT) | 0.019
28 | GCTCGCCCATGGACCGGTTTTCCCGGTAATCCGTATTTGAT (site GCTTGCCCTAT) | 0.00792
29 | GCTCGTACATGGACCGGTTTTCCCGGTAATCCGTATTTGAT (site GCTCGTACTAT) | 1.1
30 | GCTCTGCCATGGACCGGTTTTCCCGGTAATCCGTATTTGCG (site GCTCTGCCTCG) | 0.0154
31 | GCTGCAGCATGGACCGGTTTTCCCGGTAATCCGTATTTGTC (site GCTGCAGCTGA) | 2.59
32 | GCTGGAACATGGACCGGTTTTCCCGGTAATCCGTATTTGAC (site GCTGGAACTGT) | 1.62
33 | GCTGTGTCATGGACCGGTTTTCCCGGTAATCCGTATTTGGA (site GCTGTGTCTTC) | 1.46
34 | GCTTAGACATGGACCGGTTTTCCCGGTAATCCGTATTTGGC (site GCTTAGACTGC) | 2.37
35 | GCTTCCCCATGGACCGGTTTTCCCGGTAATCCGTATTTGAT (site GCTTACCCTAT) | 0.0108
36 | GCTTCCCCATGGACCGGTTTTCCCGGTAATCCGTATTTGAT (site GCTTCCCCTAT) | 0.569
37 | GCTTCCCCATGGACCGGTTTTCCCGGTAATCCGTATTTGAT (site GCTTGCCCTAT) | 0.00758
38 | GCTTCCCCATGGACCGGTTTTCCCGGTAATCCGTATTTGAT (site GCTTTCCCTAT) | 0.028
39 | GCTTCCCCATGGACCGGTTTTCCCGGTAATCCGTATTTGCA (site GCTTCCCCTTG) | 1.15
40 | GCTTCTGCATGGACCGGTTTTCCCGGTAATCCGTATTTGCC (site GCTACTGCTGG) | 0.647
41 | GCTTCTGCATGGACCGGTTTTCCCGGTAATCCGTATTTGCC (site GCTCCTGCTGG) | 1.82
42 | GCTTCTGCATGGACCGGTTTTCCCGGTAATCCGTATTTGCC (site GCTGCTGCTGG) | 0
43 | GCTTCTGCATGGACCGGTTTTCCCGGTAATCCGTATTTGCC (site GCTTCTGCTGG) | 1.86
44 | GCTTGCCCATGGACCGGTTTTCCCGGTAATCCGTATTTGGT (site GCTTGCCCTAA) | 0.00835
45 | GCTTGCCCATGGACCGGTTTTCCCGGTAATCCGTATTTGGT (site GCTTGCCCTAC) | 0.017
46 | GCTTGCCCATGGACCGGTTTTCCCGGTAATCCGTATTTGGT (site GCTTGCCCTAG) | 0
47 | GCTTGCCCATGGACCGGTTTTCCCGGTAATCCGTATTTGGT (site GCTTGCCCTAT) | 0
48 | GCTTTACCATGGACCGGTTTTCCCGGTAATCCGTATTTGTT (site GCTTTACCTAA) | 0.0408
49 | GCTTTAGCATGGACCGGTTTTCCCGGTAATCCGTATTTGTT (site GCTTTAGCTAA) | 0.00318
50 | GGAAATCCATGGACCGGTTTTCCCGGTAATCCGTATTTGAA (site GGAAATCCTTT) | 0.994

Row | Sequence | recombinant UMI read abundance (log10)
51 | GGAAATCCATGGACCGGTTTTCCCGGTAATCCGTATTTGAA (site GGCAATCCTTT) | 0
52 | GGAAATCCATGGACCGGTTTTCCCGGTAATCCGTATTTGAA (site GGGAATCCTTT) | 0
53 | GGAAATCCATGGACCGGTTTTCCCGGTAATCCGTATTTGAA (site GGTAATCCTTT) | 0
54 | GGAAATCCATGGACCGGTTTTCCCGGTAATCCGTATTTGGT (site GGAAATCCTAC) | 0
55 | GGAACGGCATGGACCGGTTTTCCCGGTAATCCGTATTTGGA (site GGAACGGCTTC) | 1.09
56 | GGAAGCTCATGGACCGGTTTTCCCGGTAATCCGTATTTGTT (site GGAAGCTCTAA) | 2.26
57 | GGAATGGCATGGACCGGTTTTCCCGGTAATCCGTATTTGGT (site GGAATGGCTAC) | 1.5
58 | GGAATGGCATGGACCGGTTTTCCCGGTAATCCGTATTTGGT (site GGACTGGCTAC) | 0.00772
59 | GGAATGGCATGGACCGGTTTTCCCGGTAATCCGTATTTGGT (site GGAGTGGCTAC) | 0.00394
60 | GGAATGGCATGGACCGGTTTTCCCGGTAATCCGTATTTGGT (site GGATTGGCTAC) | 0.00922
61 | GGAATTGCATGGACCGGTTTTCCCGGTAATCCGTATTTGCC (site GGAATTGCTGG) | 0
62 | GGACACGCATGGACCGGTTTTCCCGGTAATCCGTATTTGCT (site GGACACGCTAG) | 2.59
63 | GGACAGACATGGACCGGTTTTCCCGGTAATCCGTATTTGCC (site GGAAAGACTGG) | 0
64 | GGACAGACATGGACCGGTTTTCCCGGTAATCCGTATTTGCC (site GGACAGACTGG) | 2.42
65 | GGACAGACATGGACCGGTTTTCCCGGTAATCCGTATTTGCC (site GGAGAGACTGG) | 0
66 | GGACAGACATGGACCGGTTTTCCCGGTAATCCGTATTTGCC (site GGATAGACTGG) | 1.84
67 | GGACAGTCATGGACCGGTTTTCCCGGTAATCCGTATTTGTC (site GGACAGTCTGA) | 3.04
68 | GGACCAACATGGACCGGTTTTCCCGGTAATCCGTATTTGTA (site GGACCAACTTA) | 1.09
69 | GGACCAACATGGACCGGTTTTCCCGGTAATCCGTATTTGTA (site GGCCCAACTTA) | 0.00566
70 | GGACCAACATGGACCGGTTTTCCCGGTAATCCGTATTTGTA (site GGGCCAACTTA) | 0.0083
71 | GGACCAACATGGACCGGTTTTCCCGGTAATCCGTATTTGTA (site GGTCCAACTTA) | 0.0428
72 | GGACGTACATGGACCGGTTTTCCCGGTAATCCGTATTTGTG (site GGACGTACTCA) | 1.09
73 | GGACTGGCATGGACCGGTTTTCCCGGTAATCCGTATTTGGT (site GGAATGGCTAC) | 0.00409
74 | GGACTGGCATGGACCGGTTTTCCCGGTAATCCGTATTTGGT (site GGACTGGCTAC) | 0.371
75 | GGACTGGCATGGACCGGTTTTCCCGGTAATCCGTATTTGGT (site GGAGTGGCTAC) | 0.0324
